The source of these data is US20190343801A1, “COMPOSITIONS AND METHODS FOR CONTROLLING NATURAL KILLER CELL ACTIVATION AND FUNCTION” (BAR ILAN UNIVERSITY, priority 2017, published 2019).

Counter-ions that a name gives are not always drawn.

The test deals with SHP-1 conformation. The test can be described thus: YFP-SHP1-CFP FRET sensor analysis of SHP-1 conformation in YTS cells. The class given is cell-based. The conditions noted are these: inhibitory NKIS (221-Cw4), untreated 11.5±2.5%; 1 μM JAS, 25 μM Y-27. How it is done:
Active “open” conformation of SHP-1 results in a large distance between the two fluorescent proteins with no FRET signal. The inactivated, “closed”, conformation of SHP-1 brings the N′- and C′-termini into proximity resulting in high FRET efficiency.
YTS-2DL1 cells transiently expressing YFP-SHP1-CFP were treated with 25 μM Y-27 or left untreated. Cells were incubated on slides with 221-Cw4 or Cw7 target cells expressing mCherry, following 5 min of conjugation at 37° C., cells were treated with 1 μM JAS, and incubated for 5 min before fixation. FRET analysis was performed (see Experimental procedures). […]
FRET was measured by the donor-sensitized acceptor fluorescence technique. Briefly, three sets of filters were used: one optimized for donor fluorescence (excitation, 458 nm, and emission, 465 to 510 nm), a second for acceptor fluorescence (excitation, 514 nm, and emission, 530 to 600 nm), and a third for FRET (excitation, 458 nm; emission, 530 to 600 nm).
FRET correction was performed as previously described. In brief, the non-FRET components were calculated and removed using calibration curves derived from images of single-labeled CFP- or YFP-expressing cells. […] A calibration curve was derived that defined the amount of CFP fluorescence seen in the FRET image as a function of the fluorescence in the CFP image. […]

Compound `C[C@@H](N)C1CCC(C(=O)Nc2ccncc2)CC1` (stereo partly drawn) [Formula Y-27, 4-[(1R)-1-aminoethyl]-N N-4-pyridinyl-trans-cyclohexanecarboxamide, dihydrochloride] had an FRET efficiency of 23.2±1.3%.
